These results are taken from US6413974B1, “6,9,-disubstituted 2-[trans-(4-aminocyclohexyl) amino] purines” (Aventis Pharmaceuticals Inc., priority 1998, dated 2002).

Where “and” joins values, the source holds several entries; their conditions need not be identical. Identical values can stand only once. Counter-ions that a name gives are not always drawn. Like-named read-outs stand apart in the source and are kept apart here.

One assay has as its system DMS-114. Description: In vitro tumor cell proliferation, DMS-114. In kind it is cell-based, human. As to conditions: read-out: In vitro Tumor Cell Proliferation (IC50, μM) Lung DMS-114. Put shortly:
(§1)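 SRB read-out: 3-day drug exposure, medium and drug renewed, 4 further days, TCA fixation at 4° C, 0.4% SRB stain. CyQUANT alternative: 3-day drug exposure, then plates frozen at −80° C ≥30 min. Cells plated overnight at 37° C before dosing.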

The next assay deals with A549. Description: In vitro tumor cell proliferation, A549. In kind it is cell-based, human. As to conditions: read-out: In vitro Tumor Cell Proliferation (IC50, μM) Lung A549. In short, it runs like this:
as §1

For the next assay, the system named is DU 145. Description: In vitro tumor cell proliferation, DU 145. As to conditions: read-out: In vitro Tumor Cell Proliferation (IC50, μM) Prostate DUI45. In kind it is cell-based, human. Put shortly:
as §1

The target of the next assay is T1, cdk4/cyclin D1 (Homo sapiens, UniProt P11802).
T1 construct: made in house; host or cells: Sf9 insect cells (Bac-to-Bac baculovirus, pFastBac)
T1 sequence (P11802 whole entry): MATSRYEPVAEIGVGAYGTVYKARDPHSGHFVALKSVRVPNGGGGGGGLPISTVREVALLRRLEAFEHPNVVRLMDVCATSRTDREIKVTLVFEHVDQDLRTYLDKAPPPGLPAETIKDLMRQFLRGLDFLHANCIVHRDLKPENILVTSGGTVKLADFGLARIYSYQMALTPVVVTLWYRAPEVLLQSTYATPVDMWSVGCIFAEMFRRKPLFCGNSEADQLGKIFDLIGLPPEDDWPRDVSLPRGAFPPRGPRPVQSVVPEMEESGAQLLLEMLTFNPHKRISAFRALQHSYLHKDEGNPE
T1 sequence (P24385 whole entry partner): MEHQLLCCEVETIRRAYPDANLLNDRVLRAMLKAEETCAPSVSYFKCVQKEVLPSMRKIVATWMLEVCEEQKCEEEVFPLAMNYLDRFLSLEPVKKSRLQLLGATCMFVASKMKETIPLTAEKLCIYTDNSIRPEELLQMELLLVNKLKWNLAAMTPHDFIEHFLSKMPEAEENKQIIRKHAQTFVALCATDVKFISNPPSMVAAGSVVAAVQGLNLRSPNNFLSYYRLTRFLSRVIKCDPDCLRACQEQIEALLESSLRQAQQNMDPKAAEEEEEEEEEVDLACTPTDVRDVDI
Description: Cyclin-dependent kinase 4 Assay. In kind it is biochemical. As to conditions: cdk4/cyclin D1, GST-Rb substrate, 10 μM ATP, 30 min at 37° C.; read-out: CDK4 Inhibition IC50. Put shortly:
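Insect-cell lysate of coexpressed human cdk4/cyclin D1 (0.1 μg) phosphorylated bead-bound GST-Rb (0.5 μg) in 50 mM HEPES pH 7.5, 10 mM MgCl2, 1 mM EGTA for 30 min at 37 °C. Filters were washed with TNEN and scintillation-counted; IC50 values derived.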

The target of the next assay is T2, cdk2/cyclin E (Homo sapiens, UniProt P24941).
T2 construct: made in house; host or cells: insect cells (baculovirus co-infection)
Description: Cyclin-Dependent Kinase 2 Assay (cdk-2 inhibition). In kind it is biochemical. The following applies: GST-Rb substrate, 30 min at 30° C. In short, it runs like this:
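GST-Rb bound to glutathione-Sepharose beads (0.5 μg/well) as substrate in 50 mM HEPES pH 7.5, 10 mM MgCl2, 1 mM EGTA. Recombinant cdk2/cyclin E at 0.1 μg per 100 μl, 30 min at 30 °C. Reaction stopped by filtration, TNEN washes, scintillation counting.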

Another assay has as its system MDA-MB-231. Description: In vitro tumor cell proliferation, MDA-MB-231. In kind it is cell-based, human. The following applies: read-out: In vitro Tumor Cell Proliferation (IC50, μM) Breast MDA-MB-231. In short, it runs like this:
as §1

A further assay relates to HCT-15. Description: In vitro tumor cell proliferation, HCT-15. In kind it is cell-based, human. As to conditions: read-out: In vitro Tumor Cell Proliferation (IC50, μM) Colon HCT-15. Here is the method: The proliferation of tumor cells was measured using a sulforhodamine B assay as described in Skehan, P., et al., J. Natl. Cancer Inst. […] Tumor cells were harvested with trypsin-EDTA, cells that excluded trypan blue were counted, added to 96-well plates and incubated overnight at 37° C. Drug was added to the wells following dilution in culture medium. Three days later, the medium was removed and replenished with medium containing fresh drug and incubated an additional 4 days. The cells were then fixed with 0.1 ml 10% trichloroacetic acid for 60 min at 4° C. The plates were rinsed five times with tap water, air-dried and stained for 30 min with 0.4% sulforhodamine B in 1% acetic acid and air-dried.
Alternatively, the CyQUANT cell proliferation assay was used to quantify tumor cell proliferation. Tumor cells were harvested with trypsin-EDTA, cells that excluded trypan blue were counted, added to 96-well plates and incubated overnight at 37° C. Drug was added to the wells following dilution in culture medium. Three days later the medium was removed and the plates frozen at −80° C. for at least 30 minutes.

Another assay concerns HT-29. Description: In vitro tumor cell proliferation, HT-29. The following applies: read-out: In vitro Tumor Cell Proliferation (IC50, μM) Colon HT-29 (converted). In kind it is cell-based, human. Put shortly:
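HT-29 human colon adenocarcinoma cells plated overnight at 37° C., then exposed to drug for 3 days, medium with fresh drug replaced for a further 4 days. Cells fixed with 10% TCA and stained with 0.4% sulforhodamine B; alternatively, CyQUANT read after 3 days of drug exposure.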

In the next assay the test system is PC-3. Description: In vitro tumor cell proliferation, PC-3. Format: cell-based, human. As to conditions: read-out: In vitro Tumor Cell Proliferation (IC50, μM) Prostate PC-3. Put shortly:
as §1

Where [1] appears, read: Homo sapiens, DMS-114, values without *.
Setting [2] is: values without *, dihydrochloride.
[3] abbreviates: Homo sapiens, A549, values without *.
The mark [4] stands for this setting: Homo sapiens, DU-145, values without *.
Where [5] appears, read: Homo sapiens, MDA-MB-231, values without *.
[6] abbreviates: Homo sapiens, HCT-15, values without *.
[7] abbreviates: Homo sapiens, HT-29, values without *.
Setting [8] is: Homo sapiens, PC-3, values without *.

Take `N[C@H]1CC[C@H](Nc2nc(NCC3CC3)c3ncn(C4CCCC4)c3n2)CC1` [Example 34, 2-[Trans-(4-aminocyclohexyl)amino]-6-[(cyclopropyl)methylamino]-9-cyclopentylpurine dihydrochloride]: the IC50 is 1.5 µM in the assay on DMS-114 (setting [1]); 1.4 µM with DMS-114 (setting [2]); 1.9 µM in the assay with A549 (setting [3]); 1.2 µM with A549 (setting [2]); 0.97 µM in the assay with DU 145 (setting [4]); 1.7 µM with DU 145 (setting [2]). Also, the IC50 at cdk4/cyclin D1 was 0.93 µM and 0.64 µM; against cdk2/cyclin E it was 0.024 µM; in the assay on MDA-MB-231 (setting [5]), 1.2 µM; with MDA-MB-231 (setting [2]) it was 2.2 µM; in the assay with HCT-15 (setting [6]), 3.3 µM; with HCT-15 (setting [2]) it was 3.4 µM. Also, the IC50 was 1.3 µM with HT-29 (setting [7]) and 2.6 µM with HT-29 (setting [2]).

Consider `N[C@H]1CC[C@H](Nc2nc(NCc3ccc(Cl)cc3)c3ncn(C4CCCC4)c3n2)CC1` [Example 27, 2-[Trans-(4-aminocyclohexyl)amino]-6-[(4-chlorobenzyl)amino]-9-cyclopentylpurine dihydrochloride], for which the IC50 in the assay with DMS-114 (setting [1]) amounted to 9.5 µM; in the assay with DMS-114 (setting [2]) it was 6.8 µM; with A549 (setting [3]), 8.4 µM; in the assay on A549 (setting [2]) it was 11 µM; in the assay with DU 145 (setting [4]), 7.2 µM; in the assay with DU 145 (setting [2]) it was 11 µM. Also, the IC50 was 17 µM and 9 µM on cdk4/cyclin D1; 0.44 µM against cdk2/cyclin E; 7 µM in the assay on MDA-MB-231 (setting [5]); 15 µM in the assay on HCT-15 (setting [2]); 8.7 µM with PC-3 (setting [8]); 16 µM with HT-29 (setting [7]).

As for `N[C@H]1CC[C@H](Nc2nc(NCC3CCCCC3)c3ncn(C4CCCC4)c3n2)CC1` [Example 22, 2-[Trans-(4-aminocyclohexyl)amino]-6-[(cyclohexyl)methylamino]-9-cyclopentylpurine dihydrochloride], the IC50 in the assay on DMS-114 (setting [1]) was 9 µM; with A549 (setting [3]), 8 µM; in the assay with DU 145 (setting [4]), 7.5 µM; with DU 145 (setting [2]), 11 µM; on cdk4/cyclin D1, 24 µM and 63 µM; at cdk2/cyclin E it was 0.52 µM. The IC50 in the assay with MDA-MB-231 (setting [5]) was 8.6 µM; in the assay on HCT-15 (setting [6]), 17 µM; with HCT-15 (setting [2]), 15 µM; in the assay on HT-29 (setting [7]), 16 µM; in the assay with HT-29 (setting [2]), 12 µM.

As to `N[C@H]1CC[C@H](Nc2nc(NCc3cccc(Cl)c3)c3ncn(C4CCCC4)c3n2)CC1` [Example 29, 2-[Trans-(4-aminocyclohexyl)amino]-6-[(3-chlorobenzyl)amino]-9-cyclopentylpurine dihydrochloride], the IC50 in the assay on DMS-114 (setting [1]) stood at 0.52 µM; in the assay with DMS-114 (setting [2]) it was 0.63 µM; with A549 (setting [3]), 0.92 µM; in the assay on A549 (setting [2]), 1.3 µM; with DU 145 (setting [4]), 0.8 µM; in the assay on DU 145 (setting [2]), 0.92 µM. Besides, the IC50 on cdk4/cyclin D1 turned out to be 0.53 µM; against cdk2/cyclin E, 0.032 µM; in the assay with MDA-MB-231 (setting [5]), 1.1 µM; in the assay with MDA-MB-231 (setting [2]), 1.6 µM; with HCT-15 (setting [6]), 3.8 µM; in the assay on HCT-15 (setting [2]), 2.9 µM. For the same compound, the values for the IC50 with HT-29 (setting [7]) and in the assay with HT-29 (setting [2]) were 2.4 µM and 1.5 µM, respectively.

For the compound `Cc1cccc(CNc2nc(N[C@H]3CC[C@H](N)CC3)nc3c2ncn3C2CCCC2)c1` [Example 11, 2-[Trans-(4-aminocyclohexyl)amino]-6-[(3-methylbenzyl)amino]-9-cyclopentylpurine dihydrochloride], the IC50 in the assay with DMS-114 (setting [1]) was 4.5 µM; in the assay on DMS-114 (setting [2]), 7.1 µM; in the assay with DU 145 (setting [4]), 4.8 µM; with DU 145 (setting [2]), 8 µM; on cdk4/cyclin D1, 11 µM and 7.4 µM; against cdk2/cyclin E, 0.15 µM. Also, the IC50 was 7.4 µM in the assay on MDA-MB-231 (setting [5]); 11 µM in the assay with HCT-15 (setting [6]); 5.8 µM in the assay on PC-3 (setting [8]); 4.2 µM with PC-3 (setting [2]); 8.2 µM with HT-29 (setting [7]); 11 µM with HT-29 (setting [2]).
